According to ChEMBL document CHEMBL1201862, “PubChem BioAssay data set” (2004):
The source made the active and inactive calls.

Legend:
[1] = HEp-2 cell cytotoxicity, dose response, cytotoxicity control for RSV inhibitor project, HTS (AID 2410); type: functional; conditions: human respiratory syncytial virus
[2] = biological target: Nucleotide-binding oligomerization domain-containing protein 2 (Homo sapiens, UniProt Q9HC29); experiment: PubChem AID 2334; type: functional
HEK293 [3] = experiment: cells; conditions: Homo sapiens
Tumor necrosis factor = Tumor necrosis factor (Homo sapiens, UniProt P01375); experiment: TNFa-triggered NF-kB activation inhibitors, SAR follow-up, cell-based, revised (AID 2337); type: functional
Tumor necrosis factor, sequence (P01375 whole entry, the tested form may be a part): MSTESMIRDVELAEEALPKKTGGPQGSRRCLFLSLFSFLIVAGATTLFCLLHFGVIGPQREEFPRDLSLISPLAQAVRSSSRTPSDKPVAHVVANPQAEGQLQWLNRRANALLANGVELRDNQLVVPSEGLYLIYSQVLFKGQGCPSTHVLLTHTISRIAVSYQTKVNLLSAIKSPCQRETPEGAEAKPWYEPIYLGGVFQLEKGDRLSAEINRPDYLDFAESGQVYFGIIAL

[4] = biological target: T1, Nucleotide-binding oligomerization domain-containing protein 1 (Homo sapiens, UniProt Q9Y239); experiment: NOD1 signaling inhibitors, SAR follow-up, revised (AID 2333); type: functional
T1 sequence (Q9Y239 whole entry): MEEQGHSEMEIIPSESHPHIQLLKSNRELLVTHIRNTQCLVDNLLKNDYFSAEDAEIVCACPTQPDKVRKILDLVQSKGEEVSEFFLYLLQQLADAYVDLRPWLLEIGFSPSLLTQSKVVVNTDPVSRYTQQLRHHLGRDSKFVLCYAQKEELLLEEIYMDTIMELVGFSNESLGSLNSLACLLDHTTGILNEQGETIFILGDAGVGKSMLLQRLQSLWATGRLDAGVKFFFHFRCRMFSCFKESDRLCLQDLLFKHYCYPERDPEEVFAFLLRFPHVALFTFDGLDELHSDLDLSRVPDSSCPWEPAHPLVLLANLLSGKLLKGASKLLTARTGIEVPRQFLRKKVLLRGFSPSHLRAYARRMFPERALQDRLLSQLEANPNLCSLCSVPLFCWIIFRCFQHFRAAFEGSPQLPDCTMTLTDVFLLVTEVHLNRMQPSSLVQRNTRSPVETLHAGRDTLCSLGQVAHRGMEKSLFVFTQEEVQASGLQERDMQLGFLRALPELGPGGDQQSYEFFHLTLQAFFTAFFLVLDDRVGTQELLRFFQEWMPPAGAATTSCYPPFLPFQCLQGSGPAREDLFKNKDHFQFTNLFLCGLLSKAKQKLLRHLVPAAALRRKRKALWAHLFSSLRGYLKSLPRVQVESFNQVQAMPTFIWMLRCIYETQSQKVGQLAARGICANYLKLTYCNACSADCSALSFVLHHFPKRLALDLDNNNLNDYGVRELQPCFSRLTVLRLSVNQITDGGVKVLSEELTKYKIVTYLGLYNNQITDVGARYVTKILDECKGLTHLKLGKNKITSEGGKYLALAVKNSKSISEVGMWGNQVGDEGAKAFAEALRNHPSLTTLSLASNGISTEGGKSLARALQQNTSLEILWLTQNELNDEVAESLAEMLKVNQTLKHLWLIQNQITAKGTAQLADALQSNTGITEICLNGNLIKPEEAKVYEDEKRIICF

[5] = Luminescence Cell-Based Dose Retest to Confirm Inhibitors of Cancer Stem Cells. [Related pubchem assays (depositor defined):AID2717, AID2721]; type: functional; conditions: Homo sapiens
Streptokinase A = biological target: T2, Streptokinase A (Streptococcus pyogenes serotype M1, UniProt P10520); experiment: S. pyogenes streptokinase expression inhibitors, potency, dose response, plasminogen activation absorbance, OD405 (AID 1914); type: functional, Streptococcus pyogenes M1 GAS;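 further: secreted streptokinase activity via plasminogen activation per viability signal from cell pellet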
T2 sequence (P10520 whole entry): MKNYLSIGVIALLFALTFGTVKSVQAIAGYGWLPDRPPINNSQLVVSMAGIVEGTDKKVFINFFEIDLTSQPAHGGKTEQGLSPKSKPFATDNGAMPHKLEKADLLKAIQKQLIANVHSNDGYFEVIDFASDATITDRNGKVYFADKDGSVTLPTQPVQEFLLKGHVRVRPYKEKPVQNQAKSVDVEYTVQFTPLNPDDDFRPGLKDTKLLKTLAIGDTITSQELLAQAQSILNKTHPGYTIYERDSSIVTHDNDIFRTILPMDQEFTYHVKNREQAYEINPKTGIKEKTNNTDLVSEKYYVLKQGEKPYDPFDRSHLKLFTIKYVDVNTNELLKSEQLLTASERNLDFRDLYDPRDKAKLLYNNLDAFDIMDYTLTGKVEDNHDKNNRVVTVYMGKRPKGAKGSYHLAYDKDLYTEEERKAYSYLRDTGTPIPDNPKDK

Streptococcus = experiment: Group A Streptococcus viability loss, dose response, counter-screen for streptokinase expression inhibitor project, luminescence, BacTiterGlo (AID 1915); type: functional, organism-based;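 further: potency for reduction of bacterial viability or growth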
HEK293 [6] = experiment: Fluorescence-based counterscreen for potentiators or agonists of NPY-Y1: cell-based high-throughput dose response assay for inhibitors of cyclic nucleotide gated ion channel (CNGC) activity. In this assay, the parental HEK293 cell line transfected with a cyclic-nucleotide gated ion channel (CNGC)-based cAMP sensor is used to measure inhibition of isoproterenol-induced CNGC …; type: functional; conditions: Homo sapiens
[7] = biological target: T3, Neuropeptide Y receptor type 2 (Homo sapiens, UniProt P49146); experiment: Fluorescence-based counterscreen for agonists of NPY-Y1: cell-based high-throughput dose response assay for agonists of NPY-Y2.; type: functional
T3 sequence (P49146 whole entry): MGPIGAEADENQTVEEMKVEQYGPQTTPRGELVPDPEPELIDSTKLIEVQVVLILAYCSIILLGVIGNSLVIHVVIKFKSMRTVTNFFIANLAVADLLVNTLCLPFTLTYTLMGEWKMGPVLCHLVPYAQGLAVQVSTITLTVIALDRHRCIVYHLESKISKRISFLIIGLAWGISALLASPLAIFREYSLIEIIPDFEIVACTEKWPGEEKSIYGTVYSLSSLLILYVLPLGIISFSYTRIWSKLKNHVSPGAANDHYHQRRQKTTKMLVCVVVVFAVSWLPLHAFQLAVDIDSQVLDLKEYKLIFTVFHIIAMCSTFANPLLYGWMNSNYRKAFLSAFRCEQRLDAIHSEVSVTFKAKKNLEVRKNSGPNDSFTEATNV

[8] = M. tuberculosis H37Rv growth inhibitors, H37Rv strain (AID 1626); type: functional
[9] = test system: Streptococcus sp. 'group A'; experiment: growth inhibition of control SK(-) GAS strain, dose response, counter-screen for streptokinase expression inhibitor project, luminescence, kanamycin, BacTiterGlo, confirmation (AID 1900); type: functional, organism-based
[10] = biological target: T4, Neuropeptide Y receptor type 1 (Homo sapiens, UniProt P25929); experiment: Fluorescence-based dose response cell-based high-throughput screening assay for potentiators or agonists of NPY-Y1.; type: functional
T4 sequence (P25929 whole entry): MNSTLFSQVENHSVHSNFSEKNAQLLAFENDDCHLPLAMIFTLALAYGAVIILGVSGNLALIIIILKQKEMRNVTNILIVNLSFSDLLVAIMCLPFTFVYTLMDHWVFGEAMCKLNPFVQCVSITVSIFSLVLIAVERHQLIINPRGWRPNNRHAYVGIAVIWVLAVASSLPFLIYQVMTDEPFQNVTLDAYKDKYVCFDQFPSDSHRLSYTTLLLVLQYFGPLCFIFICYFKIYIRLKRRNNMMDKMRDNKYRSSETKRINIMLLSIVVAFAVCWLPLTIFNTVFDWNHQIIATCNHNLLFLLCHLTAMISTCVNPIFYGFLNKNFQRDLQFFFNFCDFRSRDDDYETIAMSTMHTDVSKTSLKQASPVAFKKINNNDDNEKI

[11] = biological target: T3, Neuropeptide Y receptor type 2; experiment: Fluorescence counterscreen for potentiators or agonists of NPY-Y1: Cell-based high-throughput dose response assay for potentiators or agonists of NPY-Y2.; type: functional
[12] = biological target: T5, Mannose-6-phosphate isomerase (Homo sapiens, UniProt P34949); experiment: PMI enzyme inhibitors, confirmation, biochemical, fluorescence intensity (AID 1535)
T5 sequence (P34949 whole entry): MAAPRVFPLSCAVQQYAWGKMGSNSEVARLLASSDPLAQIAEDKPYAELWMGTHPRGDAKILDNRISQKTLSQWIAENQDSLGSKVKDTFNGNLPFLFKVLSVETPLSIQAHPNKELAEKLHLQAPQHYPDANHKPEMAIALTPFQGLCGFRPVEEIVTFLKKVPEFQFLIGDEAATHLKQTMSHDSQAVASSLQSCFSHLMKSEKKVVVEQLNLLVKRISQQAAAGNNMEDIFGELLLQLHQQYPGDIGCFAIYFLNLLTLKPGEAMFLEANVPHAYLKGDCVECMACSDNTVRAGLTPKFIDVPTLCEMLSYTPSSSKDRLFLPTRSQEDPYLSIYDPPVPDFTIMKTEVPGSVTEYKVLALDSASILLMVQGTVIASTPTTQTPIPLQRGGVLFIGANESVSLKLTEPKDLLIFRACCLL

Phosphomannomutase 2 = biological target: T6, Phosphomannomutase 2 (Homo sapiens, UniProt O15305); experiment: Counter screen SAR assay for PMM2 inhibitors via a fluorescence intensity assay. [Related pubchem assays (depositor defined):AID1545, AID1574]
T6 sequence (O15305 whole entry): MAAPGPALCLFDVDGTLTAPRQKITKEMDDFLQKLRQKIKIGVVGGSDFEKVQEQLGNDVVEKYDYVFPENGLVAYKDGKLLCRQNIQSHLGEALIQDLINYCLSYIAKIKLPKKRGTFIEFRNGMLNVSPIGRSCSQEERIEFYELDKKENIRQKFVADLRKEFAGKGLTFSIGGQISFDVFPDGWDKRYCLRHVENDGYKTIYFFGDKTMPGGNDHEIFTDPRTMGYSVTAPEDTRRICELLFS

[13] = biological target: Phosphoethanolamine/phosphocholine phosphatase (Homo sapiens, UniProt Q8TCT1); experiment: SAR assay for compounds that inhibit PHOSPHO1. [Related pubchem assays (depositor defined):AID1545, AID1565, AID1574]
Phosphoethanolamine/phosphocholine phosphatase, sequence (Q8TCT1 whole entry): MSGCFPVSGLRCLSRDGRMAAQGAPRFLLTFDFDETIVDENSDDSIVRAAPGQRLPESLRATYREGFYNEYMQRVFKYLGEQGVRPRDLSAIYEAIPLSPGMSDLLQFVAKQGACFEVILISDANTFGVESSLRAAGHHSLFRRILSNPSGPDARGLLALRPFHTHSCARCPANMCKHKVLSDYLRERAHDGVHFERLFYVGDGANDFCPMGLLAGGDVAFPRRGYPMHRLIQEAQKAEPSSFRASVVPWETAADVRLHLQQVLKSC

[14] = biological target: Melanin-concentrating hormone receptor 1 (Homo sapiens, UniProt Q99705); experiment: Fluorescence-based counterscreen for antagonists of the G-protein coupled receptor 7 (GPR7): cell-based high throughput dose response assay to identify antagonists of the melanin-concentrating hormone receptor 1 (MCHR1).; type: functional
Melanin-concentrating hormone receptor 1, sequence (Q99705 whole entry): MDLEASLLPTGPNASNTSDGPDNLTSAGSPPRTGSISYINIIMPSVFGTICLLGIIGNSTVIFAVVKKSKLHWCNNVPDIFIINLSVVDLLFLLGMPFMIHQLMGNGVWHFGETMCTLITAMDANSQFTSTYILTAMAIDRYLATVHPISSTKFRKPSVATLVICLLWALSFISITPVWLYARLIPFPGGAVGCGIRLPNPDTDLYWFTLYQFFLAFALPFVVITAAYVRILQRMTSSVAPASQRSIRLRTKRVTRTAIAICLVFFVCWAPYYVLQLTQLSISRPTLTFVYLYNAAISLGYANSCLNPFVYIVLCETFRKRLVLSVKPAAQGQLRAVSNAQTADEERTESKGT

[15] = biological target: T7, Neuropeptides B/W receptor type 1 (Homo sapiens, UniProt P48145); experiment: Fluorescence-based dose response cell-based high throughput screening assay to identify antagonists of the G-protein coupled receptor 7 (GPR7). [Related pubchem assays: 1952 (Screening assay (GPR7 antagonists).), 1880 (Summary AID.)]; type: functional
T7 sequence (P48145 whole entry): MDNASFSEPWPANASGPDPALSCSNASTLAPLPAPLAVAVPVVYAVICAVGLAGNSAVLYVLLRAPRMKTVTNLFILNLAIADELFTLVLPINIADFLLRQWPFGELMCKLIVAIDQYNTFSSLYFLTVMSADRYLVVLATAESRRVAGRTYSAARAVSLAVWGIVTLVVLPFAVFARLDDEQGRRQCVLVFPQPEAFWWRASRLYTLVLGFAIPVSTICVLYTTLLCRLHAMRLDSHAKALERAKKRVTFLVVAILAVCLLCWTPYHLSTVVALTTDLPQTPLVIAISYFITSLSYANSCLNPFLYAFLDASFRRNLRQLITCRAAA

CAAX prenyl protease 2 = CAAX prenyl protease 2 (Saccharomyces cerevisiae S288c, UniProt Q03530); type: biochemical
CAAX prenyl protease 2, sequence (Q03530 whole entry): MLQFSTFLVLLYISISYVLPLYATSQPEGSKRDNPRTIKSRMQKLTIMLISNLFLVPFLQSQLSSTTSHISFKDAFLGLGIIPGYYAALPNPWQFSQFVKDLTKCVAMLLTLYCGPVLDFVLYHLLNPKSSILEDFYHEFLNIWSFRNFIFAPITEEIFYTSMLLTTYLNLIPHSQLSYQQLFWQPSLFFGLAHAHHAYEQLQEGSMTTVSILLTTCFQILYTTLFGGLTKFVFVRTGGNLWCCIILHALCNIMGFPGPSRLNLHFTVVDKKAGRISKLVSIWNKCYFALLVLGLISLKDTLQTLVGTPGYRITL

[16] = growth suppression of beta-catenin-knockout colon cells, dose response, cell-based, HCT116, human colon tumor (AID 1045); type: functional;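 further: HCT116 colon tumor cells with beta catenin knocked out; cells exposed to compound for 60 hours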
X-box-binding protein 1 = X-box-binding protein 1 (Homo sapiens, UniProt P17861); type: functional, Cricetulus griseus;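 further: confirmatory dose-response counter-screen serving a CHOP assay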
X-box-binding protein 1, sequence (P17861 whole entry): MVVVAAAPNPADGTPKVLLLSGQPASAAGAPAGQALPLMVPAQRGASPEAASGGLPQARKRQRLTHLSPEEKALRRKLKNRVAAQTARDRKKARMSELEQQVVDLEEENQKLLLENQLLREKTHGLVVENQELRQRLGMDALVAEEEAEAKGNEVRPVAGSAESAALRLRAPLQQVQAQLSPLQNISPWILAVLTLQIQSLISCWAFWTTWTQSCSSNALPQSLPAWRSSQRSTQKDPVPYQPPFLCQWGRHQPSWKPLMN

[17] = growth suppression of PTEN-null colon cells, dose response, cell-based, HCT116 PTEN knockout (AID 1047); type: functional;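 further: HCT116 colon tumor cells with PTEN knocked out; cells exposed to compound for 60 hours before readout; potency for loss of cell viability measured by luminescence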
HeLa = experiment: HeLa cell cytotoxicity, dose response, cytotoxicity control, 24 h, cherry-picked samples (AID 504726); type: functional, cell-based; conditions: Homo sapiens;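 further: potency for cytotoxicity as loss of luminescence signal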

Nucleotide-binding oligomerization domain-containing protein 2, sequence (Q9HC29 whole entry, the tested form may be a part): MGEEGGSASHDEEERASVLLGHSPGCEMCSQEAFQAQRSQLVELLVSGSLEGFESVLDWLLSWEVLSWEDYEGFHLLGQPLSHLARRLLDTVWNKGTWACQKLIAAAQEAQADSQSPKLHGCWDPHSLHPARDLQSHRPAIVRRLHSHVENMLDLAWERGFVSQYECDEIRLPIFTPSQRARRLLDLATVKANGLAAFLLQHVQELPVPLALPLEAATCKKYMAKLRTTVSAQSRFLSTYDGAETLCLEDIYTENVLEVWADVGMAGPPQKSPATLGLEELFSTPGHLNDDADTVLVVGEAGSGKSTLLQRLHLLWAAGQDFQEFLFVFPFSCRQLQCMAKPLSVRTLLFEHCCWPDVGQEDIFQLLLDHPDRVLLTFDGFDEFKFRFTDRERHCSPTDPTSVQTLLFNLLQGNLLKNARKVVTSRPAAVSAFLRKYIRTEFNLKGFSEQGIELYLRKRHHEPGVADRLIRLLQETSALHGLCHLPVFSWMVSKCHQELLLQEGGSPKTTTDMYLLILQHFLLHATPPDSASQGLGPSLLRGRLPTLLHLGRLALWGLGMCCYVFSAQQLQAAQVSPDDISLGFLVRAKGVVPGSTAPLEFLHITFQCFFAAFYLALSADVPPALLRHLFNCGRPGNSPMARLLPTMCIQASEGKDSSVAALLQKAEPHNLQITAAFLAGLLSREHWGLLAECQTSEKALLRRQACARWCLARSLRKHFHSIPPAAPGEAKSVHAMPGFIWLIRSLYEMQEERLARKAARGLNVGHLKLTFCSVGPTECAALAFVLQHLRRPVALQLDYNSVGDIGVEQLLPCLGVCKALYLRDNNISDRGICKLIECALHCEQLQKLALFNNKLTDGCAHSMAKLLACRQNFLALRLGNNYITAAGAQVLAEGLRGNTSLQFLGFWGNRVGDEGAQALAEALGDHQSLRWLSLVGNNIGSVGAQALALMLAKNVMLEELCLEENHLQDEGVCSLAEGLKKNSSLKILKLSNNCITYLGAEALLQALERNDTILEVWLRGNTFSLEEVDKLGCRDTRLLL

SMILES: O=C(CCc1ccccc1)Nc1sc2c(c1C(=O)O)CCCC2
- CC50 [1]: 42.7 µM (active)
- IC50 [2]: > 20 µM (inactive)
- IC50 (HEK293 [3]): > 20 µM (inactive)
- IC50 (Tumor necrosis factor): > 20 µM (inactive)
- IC50 [4]: > 20 µM (inactive)
- IC50 (cells): 39.6 µM (active)
- AC50 [5]: 28.3 µM (active)

SMILES: Cn1nc(-c2ccc(Cl)cc2)cc1C(=O)NC1CCCc2c1cnn2-c1ccccc1F (stereo not given)
- IC50 [2]: 1.72 µM (active)
- IC50 (HEK293 [3]): > 20 µM (inactive)
- IC50 (Tumor necrosis factor): 2.72 µM (active)
- IC50 [4]: 1.92 µM (active)

SMILES: Clc1ccc(-n2c(-c3cccc(Br)c3)nc3nc4ccccc4nc32)cc1
- EC50 (Streptokinase A): > 150 µM (not active)
- EC50 (Streptococcus): 79.4 µM (active)
- IC50 (HEK293 [6]): 5.7 µM (active)
- EC50 [7]: 2.98 µM (active)
- IC50 [8]: > 100 µM (active)
- EC50 [9]: 1.58 µM (active)
- EC50 [10]: 10.1 µM (not active)
- EC50 [11]: 12 µM (not active)

SMILES: O=c1c2c([N+](=O)[O-])cc([N+](=O)[O-])cc2sn1-c1ccccc1F
- IC50 [12]: 1.45 µM (active)
- IC50 (Phosphomannomutase 2): 4.22 µM (active)
- IC50 [13]: 0.0233 µM (active)

SMILES: O=c1c2c([N+](=O)[O-])cc([N+](=O)[O-])cc2sn1-c1ccc(F)cc1
- IC50 [12]: 0.709 µM (active)
- IC50 (Phosphomannomutase 2): 2.46 µM (active)
- IC50 [13]: 0.1 µM (active)

SMILES: COc1ccc(OC)c(NS(=O)(=O)c2c(C(=O)N3CCCCCC3)c(C)n(C)c2C)c1
- IC50 [14]: > 43.8 µM (not active)
- IC50 [15]: > 43.8 µM (not active)

SMILES: CN(C)CCNC(=O)c1cccn(Cc2cc(C(F)(F)F)cc(C(F)(F)F)c2)c1=O
- AC50 (CAAX prenyl protease 2): > 100 µM (inactive)

SMILES: N=c1c(C(=O)NCCc2ccccc2)cc2c(=O)n3ccccc3nc2n1CC1CCCO1 (stereo not given)
- IC50 [14]: 158 µM (not active)
- IC50 [15]: > 43.8 µM (not active)

SMILES: Cc1ccc(NC(S)=NC(NC(=O)Cc2cccc3ccccc23)C(Cl)(Cl)Cl)cc1 (stereo not given)
- EC50 [16]: 18.3 µM (active)
- Absolute IC50 (XBP1) (X-box-binding protein 1): 10 µM
- EC50 [17]: 13.1 µM (active)
- AC50 [5]: 2.18 µM (active)

SMILES: O=C(/C=C/c1ccco1)Nc1ccccc1C(=O)Nc1cccc(C(=O)O)c1
- AC50 (HeLa): 180 µM (active)
